Laboratory results reported in patent publication US8969516B2, “Method of hydrolysis of peptide bond” (priority 2006, dated 2015).

Test: MALDI-TOF screening of Ni^2+ dependent hydrolysis in a combinatorial peptide library
Format: physicochemical
Conditions: CH3CO-Gly-Ala-Thr-X-His-Z-Lys-Phe-Leu-NH2 library, Ni^2+ 2 mM, pH 8.2, 10 mM Tris, score=24/tm
Outline: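 MALDI-TOF spectra taken at 2, 4, 6 and 8 h tracked the appearance of Ser/Thr-X-His-Z-Lys-Phe-Leu-NH2 cleavage products and the fall in substrate signals. Reactions: 1 mM peptide mixture, 2 mM Ni^2+, 10 mM Tris pH 8.2, at 37 or 45 °C; X/Z substitutions ranked by summed scores.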

Substance | hydrolysis score from MALDI-TOF screening (37° C.) | hydrolysis score from MALDI-TOF screening (45° C.)
Ac-GATRHDKFL-NH2 [TRHD] | 0 (a score of 0 if no trace of the product of hydrolysis was seen after 8 hours of incubation) | 0 (a score of 0 if no trace of the product of hydrolysis was seen after 8 hours of incubation)
Ac-GATRHEKFL-NH2 [TRHE] | 0 (a score of 0 if no trace of the product of hydrolysis was seen after 8 hours of incubation) | 0 (a score of 0 if no trace of the product of hydrolysis was seen after 8 hours of incubation)
Ac-GATRHFKFL-NH2 [TRHF] | 3 (a score of 3 for detection at 8 hours) | 4 (a score of 4 for detection at 6 hours)
Ac-GATRHGKFL-NH2 [TRHG] | 0 (a score of 0 if no trace of the product of hydrolysis was seen after 8 hours of incubation) | 0 (a score of 0 if no trace of the product of hydrolysis was seen after 8 hours of incubation)
Ac-GATRHHKFL-NH2 [TRHH] | 3 (a score of 3 for detection at 8 hours) | 4 (a score of 4 for detection at 6 hours)
Ac-GATRHIKFL-NH2 [TRHI] | 6 (a score of 6 for detection at 4 hours) | 12 (a score of 12, if it was seen to be partially hydrolysed at 2 hours)
Ac-GATRHKKFL-NH2 [TRHK] | 6 (a score of 6 for detection at 4 hours) | 12 (a score of 12, if it was seen to be partially hydrolysed at 2 hours)
Ac-GATRHLKFL-NH2 [TRHL] | 6 (a score of 6 for detection at 4 hours) | 12 (a score of 12, if it was seen to be partially hydrolysed at 2 hours)
Ac-GATRHMKFL-NH2 [TRHM] | 3 (a score of 3 for detection at 8 hours) | 4 (a score of 4 for detection at 6 hours)
Ac-GATRHNKFL-NH2 [TRHN] | 0 (a score of 0 if no trace of the product of hydrolysis was seen after 8 hours of incubation) | 0 (a score of 0 if no trace of the product of hydrolysis was seen after 8 hours of incubation)
Ac-GATRHPKFL-NH2 [TRHP] | 0 (a score of 0 if no trace of the product of hydrolysis was seen after 8 hours of incubation) | 0 (a score of 0 if no trace of the product of hydrolysis was seen after 8 hours of incubation)
Ac-GATRHQKFL-NH2 [TRHQ] | 0 (a score of 0 if no trace of the product of hydrolysis was seen after 8 hours of incubation) | 0 (a score of 0 if no trace of the product of hydrolysis was seen after 8 hours of incubation)
Ac-GATRHRKFL-NH2 [TRHR] | 4 (a score of 4 for detection at 6 hours) | 6 (a score of 6 for detection at 4 hours)
Ac-GATRHSKFL-NH2 [TRHS] | 0 (a score of 0 if no trace of the product of hydrolysis was seen after 8 hours of incubation) | 0 (a score of 0 if no trace of the product of hydrolysis was seen after 8 hours of incubation)
Ac-GATRHTKFL-NH2 [TRHT] | 0 (a score of 0 if no trace of the product of hydrolysis was seen after 8 hours of incubation) | 0 (a score of 0 if no trace of the product of hydrolysis was seen after 8 hours of incubation)
Ac-GATRHVKFL-NH2 [TRHV] | 3 (a score of 3 for detection at 8 hours) | 4 (a score of 4 for detection at 6 hours)
Ac-GATRHWKFL-NH2 [TRHW] | 12 (a score of 12, if it was seen to be partially hydrolysed at 2 hours) | 12 (a score of 12, if it was seen to be partially hydrolysed at 2 hours)
Ac-GATRHYKFL-NH2 [TRHY] | 4 (a score of 4 for detection at 6 hours) | 6 (a score of 6 for detection at 4 hours)
